Experimental data from patent US20220143003A1, “COMPOSITIONS AND METHODS TO TREAT NON-ALCOHOLIC FATTY LIVER DISEASES (NAFLD)” (Coherus Biosciences, Inc., priority 2018, published 2022).

Key:
Assay type in all cases: in vivo, male C57BL/6JRj mice
[1] = test system: DIO-NASH mice; assay: Liver triglycerides (TG) at termination; conditions: group mean
Protocol: (§1) The liver post-biopsy for histological analyses was removed by dissection from the left lateral lobe, fixated in 4% formalin for 20-24 h, and subsequently embedded in paraffin. Liver biopsies for liver triglycerides and total cholesterol were dissected from the medial lobe, snap frozen in liquid nitrogen, and stored at −80° C., while liver biopsies for hydroxyproline were dissected from the caudal lobe (the entire lobe), snap frozen in liquid nitrogen and stored at −80° C. Finally, a liver sample for RNA isolation and gene expression analysis was dissected from the left lateral lobe, snap frozen in liquid nitrogen, and stored at −80° C. until processing.
(§2) For liver TG and TC quantification, samples were homogenized, and TG and TC extracted in 5% NP-40 by heating twice to 90° C. The samples were centrifuged, and the TG and TC content measured in the supernatant, using commercial kits (Roche Diagnostics) on the Cobas c501 autoanalyzer according to the manufacturer's instructions.
Relative (mg/g of liver) liver triglycerides (TG) at termination. Values expressed as mean of n=12-14+SEM.
Total (mg/liver) liver triglycerides (TG) at termination. Values expressed as mean of n=12-14+SEM.

[2] = test system: DIO-NASH mice; assay: Fibrosis stage, Sirius red histopathological scoring of pre- and post-biopsies; conditions: post- vs pre-study biopsy, trend, p=0.07
Protocol: Three weeks prior to study start, a pre-biopsy was performed to confirm NASH and for study inclusion of NASH-affected mice only. Briefly, mice were anesthetized with isoflurane (2-3%) in 100% oxygen. A small abdominal incision was made in the midline and the left lateral lobe of the liver exposed. A cone shaped wedge of liver tissue (approximately 50 mg) was excised from the distal portion of the lobe and fixated in 10% neutral buffered formalin (4% formaldehyde) for histopathological analyses. The cut surface of the liver was instantly electro-coagulated using bipolar coagulation (ERBE VIO 100 electrosurgical unit). The liver was returned to the abdominal cavity, the abdominal wall sutured, and the skin closed with staplers. For post-operative recovery, mice received carprofen (5 mg/ml-0.01 ml/10 g) administered subcutaneously on the day of operation and on post-operation day 1 and 2. For Sirius red staining, slides were incubated in Weigert's iron hematoxylin, washed in tap water, stained in Picro-Sirius red and washed twice in acidified water. […] For scoring of NAFLD Activity Score (NAS) and fibrosis stage, HE and Sirius red stained liver sections, respectively, were scored by a histopathology specialist as outlined in Table 10 using the clinical criteria outlined by Kleiner et al. (2005). […] Fibrosis stage is evaluated separately from NAS.

[3] = test system: DIO-NASH mice; assay: Liver total cholesterol (TC) at termination; conditions: group mean
Protocol: as §1, §2
Relative (mg/g of liver) liver total cholesterol (TC) at termination. Values expressed as mean of n=12-14+SEM.
Total (mg/liver) liver total cholesterol (TC) at termination. Values expressed as mean of […]+SEM.

[4] = test system: DIO-NASH mice; assay: Plasma triglycerides (TG) at termination; conditions: group mean
Protocol: (§3) For plasma biochemistry, tail blood was drawn directly through the capillary of a Microvette/Vacuette of the right dimension and anticoagulant and mixed by inversion 5 times. Blood was placed at 4° C. until centrifugation at 3000×g for 10 minutes at 4° C. The plasma supernatants were transferred to new tubes and immediately frozen on dry ice and stored at −80° C. until analysis.
(§4) Mouse insulin was measured in single determinations using the MSD platform (Meso Scale Diagnostics).
Plasma triglycerides (TG) at termination (mmol/L). Values expressed as mean of n=12-14+SEM.

[5] = test system: DIO-NASH mice; assay: 4 h fasted plasma insulin (MSD platform); conditions: for 4 h fasted plasma insulin / Delta 4 h fasted plasma insulin week 12 vs baseline: group mean
Protocol: as §3, §4
4 h fasted plasma insulin (pg/mL) at baseline. Values expressed as mean of n=12-14+SEM.
4 h fasted plasma insulin (pg/mL) at week 12. Values expressed as mean of n=12-14+SEM.
Delta 4 h fasted plasma insulin (pg/mL) week 12 vs baseline. Values expressed as mean of n=12-14+SEM.

[6] = CHS-131 High dose (alone or combined)
[7] = at baseline, CHS-131 High dose (alone or combined)
[8] = week 12, CHS-131 High dose (alone or combined)

| SMILES | Relative liver triglycerides (TG) at termination [1, 6] | Total liver triglycerides (TG) at termination [1, 6] [mg/liver] | Relative liver triglycerides (TG) at termination ([1]; CHS-131 Low dose) | Total liver triglycerides (TG) at termination ([1]; CHS-131 Low dose) [mg/liver] | Fibrosis stage: mice with improvement [2] | Relative liver total cholesterol (TC) at termination [3, 6] | Total liver total cholesterol (TC) at termination [3, 6] [mg/liver] | Relative liver total cholesterol (TC) at termination ([3]; CHS-131 Low dose) | Total liver total cholesterol (TC) at termination ([3]; CHS-131 Low dose) [mg/liver] | Plasma triglycerides (TG) at termination [4, 6] [mmol/L] | Plasma triglycerides (TG) at termination ([4]; CHS-131 Low dose) [mmol/L] | Plasma insulin, effect in words ([5]; DIO-NASH mice, 12 weeks of treatment, summary of data) | Decrease of fasting plasma insulin ([5]; DIO-NASH mice, compared to DIO mice administered vehicle only, significant, dose response manner) [%] | 4 h fasted plasma insulin [5, 7] [pg/mL] | 4 h fasted plasma insulin ([5]; at baseline, CHS-131 Low dose) [pg/mL] | 4 h fasted plasma insulin [5, 8] [pg/mL] | 4 h fasted plasma insulin ([5]; week 12, CHS-131 Low dose) [pg/mL] | Delta 4 h fasted plasma insulin week 12 vs baseline [5, 6] [pg/mL] | Delta 4 h fasted plasma insulin week 12 vs baseline ([5]; CHS-131 Low dose) [pg/mL] |
| --- | --- | --- | --- | --- | --- | --- | --- | --- | --- | --- | --- | --- | --- | --- | --- | --- | --- | --- | --- |
| O=S(=O)(Nc1cc(Cl)c(Oc2cnc3ccccc3c2)c(Cl)c1)c1ccc(Cl)cc1Cl [CHS-131] | 92.9 mg/g of liver | 300 | 96.7 mg/g of liver | 306 | 5/13 | 12.3 mg/g of liver | 39.2 | 12.4 mg/g of liver | 39.6 | 0.651 | 0.715 | reduced | 50 | 816 | 703 | 402 | 485 | -414 | -219 |
| CSc1ccc(C(=O)/C=C/c2cc(C)c(OC(C)(C)C(=O)O)c(C)c2)cc1 [Elafibranor, reference compound] | 45.2 mg/g of liver | 196 |  |  |  | 8.87 mg/g of liver | 38.3 |  |  | 0.525 |  |  |  | 644 |  | 297 |  | -347 |  |
| OC[C@H]1O[C@@H](c2ccc(Cl)c(Cc3ccc(O[C@H]4CCOC4)cc3)c2)[C@H](O)[C@@H](O)[C@@H]1O [Empagliflozin, reference compound] | 108 mg/g of liver | 368 |  |  |  | 12.6 mg/g of liver | 43.2 |  |  | 0.738 |  |  |  | 743 |  | 673 |  | -69.9 |  |
